Results published in ChEMBL document CHEMBL1127588, “A structure-activity relationship study of benzylic modifications of 4-[1-(1-naphthyl)ethyl]-1H-imidazoles on alpha 1- and alpha 2-adrenergic receptors” (J Med Chem, 1994).

Legend:
[1] = target: T1, Adrenergic receptor alpha-2 (Homo sapiens, UniProt P08913+P18825+P18089); test: Tested for its inhibitory activity against alpha-2 adrenoceptor in guinea pig ileum; format: tissue-based, Cavia porcellus; conditions: target entry is the homologue from another species
T1 sequence (P08913 whole entry): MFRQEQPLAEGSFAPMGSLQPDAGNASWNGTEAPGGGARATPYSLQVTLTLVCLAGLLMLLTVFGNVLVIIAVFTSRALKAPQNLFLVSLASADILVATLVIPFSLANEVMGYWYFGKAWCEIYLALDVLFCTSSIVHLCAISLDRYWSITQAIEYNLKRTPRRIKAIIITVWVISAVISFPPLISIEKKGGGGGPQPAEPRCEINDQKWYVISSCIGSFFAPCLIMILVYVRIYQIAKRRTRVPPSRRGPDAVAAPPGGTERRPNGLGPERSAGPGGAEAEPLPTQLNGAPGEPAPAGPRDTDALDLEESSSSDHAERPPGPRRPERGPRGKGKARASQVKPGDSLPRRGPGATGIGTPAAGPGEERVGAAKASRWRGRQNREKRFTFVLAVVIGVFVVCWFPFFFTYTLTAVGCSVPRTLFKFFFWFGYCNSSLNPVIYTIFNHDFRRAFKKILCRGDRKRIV
T1 sequence (P18825 whole entry): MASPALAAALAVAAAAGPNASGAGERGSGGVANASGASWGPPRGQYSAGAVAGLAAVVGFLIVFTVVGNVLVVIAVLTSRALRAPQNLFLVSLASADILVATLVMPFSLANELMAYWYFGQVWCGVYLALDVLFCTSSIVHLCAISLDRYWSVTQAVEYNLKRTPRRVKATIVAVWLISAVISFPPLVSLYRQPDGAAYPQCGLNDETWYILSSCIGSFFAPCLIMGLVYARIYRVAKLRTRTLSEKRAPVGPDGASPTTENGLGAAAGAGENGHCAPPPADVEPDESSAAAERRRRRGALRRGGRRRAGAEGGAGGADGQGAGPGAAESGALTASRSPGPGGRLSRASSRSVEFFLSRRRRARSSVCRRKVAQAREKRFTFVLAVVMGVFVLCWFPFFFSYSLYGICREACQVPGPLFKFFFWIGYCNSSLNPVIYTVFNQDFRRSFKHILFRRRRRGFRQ
T1 sequence (P18089 whole entry): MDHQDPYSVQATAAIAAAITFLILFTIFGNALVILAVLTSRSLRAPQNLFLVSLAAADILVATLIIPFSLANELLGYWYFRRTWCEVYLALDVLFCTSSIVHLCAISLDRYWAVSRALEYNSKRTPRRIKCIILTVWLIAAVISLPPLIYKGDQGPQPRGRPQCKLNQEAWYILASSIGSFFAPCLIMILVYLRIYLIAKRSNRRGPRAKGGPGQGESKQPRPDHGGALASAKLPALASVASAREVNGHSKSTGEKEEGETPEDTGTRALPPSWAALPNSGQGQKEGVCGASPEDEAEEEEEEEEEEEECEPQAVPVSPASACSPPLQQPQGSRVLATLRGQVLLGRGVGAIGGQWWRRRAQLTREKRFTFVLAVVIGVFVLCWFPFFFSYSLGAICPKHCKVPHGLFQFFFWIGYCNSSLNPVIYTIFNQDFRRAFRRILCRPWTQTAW

[2] = target: T2, Adrenergic receptor alpha-1 (Rattus norvegicus, UniProt P15823+P23944+P43140); test: Tested for its binding affinity against alpha-1 receptor in rat brain membrane; format: cell membranes
T2 sequence (P15823 whole entry): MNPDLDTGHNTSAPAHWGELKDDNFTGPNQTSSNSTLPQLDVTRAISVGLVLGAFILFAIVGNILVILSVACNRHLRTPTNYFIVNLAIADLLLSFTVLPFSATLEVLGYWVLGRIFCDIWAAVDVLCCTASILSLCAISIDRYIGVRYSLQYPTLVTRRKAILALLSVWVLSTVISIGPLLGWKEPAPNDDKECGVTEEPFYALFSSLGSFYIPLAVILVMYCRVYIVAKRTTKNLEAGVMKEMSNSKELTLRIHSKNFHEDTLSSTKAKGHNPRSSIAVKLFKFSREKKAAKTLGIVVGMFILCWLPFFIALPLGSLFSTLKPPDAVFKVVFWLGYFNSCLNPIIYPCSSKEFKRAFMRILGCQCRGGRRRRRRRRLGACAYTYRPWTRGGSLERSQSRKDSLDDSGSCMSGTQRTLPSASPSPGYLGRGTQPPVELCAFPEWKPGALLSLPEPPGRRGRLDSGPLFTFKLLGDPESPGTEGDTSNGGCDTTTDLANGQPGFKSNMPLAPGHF
T2 sequence (P23944 whole entry): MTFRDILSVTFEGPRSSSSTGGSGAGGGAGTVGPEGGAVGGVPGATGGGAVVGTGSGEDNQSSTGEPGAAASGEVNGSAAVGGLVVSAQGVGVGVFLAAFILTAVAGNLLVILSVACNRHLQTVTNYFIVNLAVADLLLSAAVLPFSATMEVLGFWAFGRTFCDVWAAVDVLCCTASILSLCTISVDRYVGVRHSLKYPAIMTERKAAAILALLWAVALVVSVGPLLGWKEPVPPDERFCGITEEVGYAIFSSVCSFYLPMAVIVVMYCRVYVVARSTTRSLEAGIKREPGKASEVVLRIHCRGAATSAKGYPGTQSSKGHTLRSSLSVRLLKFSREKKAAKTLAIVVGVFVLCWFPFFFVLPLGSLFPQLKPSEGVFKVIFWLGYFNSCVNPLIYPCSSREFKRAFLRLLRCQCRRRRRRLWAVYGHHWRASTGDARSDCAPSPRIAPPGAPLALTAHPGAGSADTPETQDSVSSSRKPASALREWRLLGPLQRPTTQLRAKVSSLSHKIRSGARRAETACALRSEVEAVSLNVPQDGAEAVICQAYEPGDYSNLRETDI
T2 sequence (P43140 whole entry): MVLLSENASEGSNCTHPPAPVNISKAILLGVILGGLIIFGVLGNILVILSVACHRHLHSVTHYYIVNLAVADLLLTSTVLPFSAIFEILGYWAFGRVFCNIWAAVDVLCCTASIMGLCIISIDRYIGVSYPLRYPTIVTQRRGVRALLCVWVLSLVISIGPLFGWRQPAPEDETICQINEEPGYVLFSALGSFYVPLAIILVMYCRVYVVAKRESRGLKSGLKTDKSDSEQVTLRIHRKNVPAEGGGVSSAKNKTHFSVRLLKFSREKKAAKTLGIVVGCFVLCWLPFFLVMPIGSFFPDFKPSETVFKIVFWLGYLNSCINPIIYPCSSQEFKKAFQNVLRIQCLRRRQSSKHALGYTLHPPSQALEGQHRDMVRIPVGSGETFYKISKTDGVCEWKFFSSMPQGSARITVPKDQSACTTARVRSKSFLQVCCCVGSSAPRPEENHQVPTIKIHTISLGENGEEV

[3] = Ratio between IC50 values of alpha 1 and alpha 2 receptors
[4] = target: Adrenergic receptor alpha (Rattus norvegicus) (UniProt P15823+P23944+P43140+P22086+P19328+P22909); test: Ratio between EC50 values of alpha 1 and alpha 2 receptors; format: protein assay

Structure (SMILES)	EC50 [1] [µM]	Ki [2] [µM]	Ratio [3]	Ratio [4]
CC(c1c[nH]cn1)c1cccc2ccccc12 (stereo in doubt; S-(+)-2)	0.011	0.461		
Cc1cccc(C(C)c2c[nH]cn2)c1C (configuration not stated) [MEDETOMIDINE]		1.102		
Cl.c1ccc2c(Cc3c[nH]cn3)cccc2c1	0.018	0.188	2.7	117
COC(c1c[nH]cn1)c1cccc2ccccc12.Cl (configuration not stated)	32.992	> 50	> 5.8	
CC(c1c[nH]cn1)c1cccc2ccccc12 (stereo in doubt; 2)	0.009	0.31		
CC(c1c[nH]cn1)c1cccc2ccccc12 (stereo in doubt; S-(-)-2)		0.536		
Cl.OC(c1c[nH]cn1)c1cccc2ccccc12 (configuration not stated)	0.375	9.255	1.05	33.8
